Laboratory results taken from patent US10383861B2, “3-(1H-pyrrolo[2,3-C]pyridin-2-yl)-1H-pyrazolo[3,4-C]pyridines and therapeutic uses thereof” (Samumed, LLC, priority 2015, dated 2019).

What was measured:
Type in all cases: cell-based
IL-6 = IL-6 inhibition in LPS-stimulated THP-1 cells (HTRF); details: Homo sapiens; for inhibition at 10 µM: THP-1, read-out: percent inhibition at 10 μM; for EC50: THP-1 cells, LPS 500 ng/mL, 22 hours, IL6 HTRF
Procedure: THP-1 cells were cultured in basal media with 1% FBS for 24 hours before the start of the assay. […] THP-1 cells were plated at 5000 cells/well in the 384-well plates and incubated at 37° C. for 2 h. 500 ng/mL of LPS was added after 2 hours and cells were incubated for another 22 hours at 37° C. Plates were spun in a centrifuge for 1 minute at […] and a mixture of anti-IL6 XL665, and anti-IL6 Cryptate diluted in reconstitution buffer (Cisbio Inc.) was added to each well. Following incubation for 3 hrs at room temperature, Homogeneous Time-Resolved Fluorescence (HTRF) was measured using the Envision (Perkin Elmer) at 665 nm and […]. The ratio of fluorescence at 665 nm to 620 nm was used as a readout for IL6 quantification. All samples were processed in duplicate. Readings were normalized to DMSO treated cells and normalized activities were utilized for EC50 calculations using the dose-response log (inhibitor) vs. response -variable slope (four parameters) nonlinear regression feature available in GraphPad Prism 5.0 (or Dotmatics).

SW480 colon cancer cells = assay: Cell viability assay (CellTiter-Blue) in SW480 colon cancer cells; details: Homo sapiens; for EC50: 96 h, SW480 cell viability, four days, CellTiter-Blue; for inhibition at 10 µM: SW480, read-out: percent inhibition at 10 μM
Procedure: Representative compounds were screened using the following assay procedure to assess the effect on cell viability as described below.
Approximately 2×10^3 SW480 colon cancer cells were seeded into each well and allowed to incubate in the presence or absence of compound for four days at 37° C./5% CO2. Eight replicates of DMSO-treated cells served as controls and cells treated with compound were performed in duplicate.
After incubation, 20 μL of CellTiter-Blue (Promega) was added to each well allowed to incubate for approximately 3 hours. This reagent was a buffered solution which contains resazurin, metabolically active cells were able to reduce rezarurin (blue) into resorufin (pink) which was highly fluorescent. This measured fluorescence was used as a readout for cell viability.

Wnt activity = Wnt activity screening assay, Sp5-Luc reporter gene in SW480 cells; details: Homo sapiens; for inhibition at 10 µM: SW480, read-out: percent inhibition at 10 μM; for EC50: Sp5-Luc reporter, SW480 cells, overnight incubation
Excerpt: The screening assay for Wnt activity is described as follows. Reporter cell lines can be generated by stably transducing cancer cell lines (e.g., colon cancer) or primary cells (e.g., IEC-6 intestinal cells) with a lentiviral construct that includes a Wnt-responsive promoter driving expression of the firefly luciferase gene.
SW480 colon carcinoma cells were transduced with a lentiviral vector expressing luciferase with a human Sp5 promoter consisting of a sequence of eight TCF/LEF binding sites. SW480 cells stably expressing the Sp5-Luc reporter gene and a hygromycin resistance gene were selected by treatment with 150 μg/mL of hygromycin for 7 days. These stably transduced SW480 cells were expanded in cell culture and used for all further screening activities. […] For Sp5-Luc reporter gene assays, the cells were plated at 4,000 cells/well in 384-well plates with medium containing 1% fetal bovine serum and incubated overnight at 37° C. and 5% CO2. Following incubation, 20 μl of BrightGlo luminescence reagent (Promega) was added to each well of the 384-well assay plates. The plates were placed on an orbital shaker for 2 min and then luminescence was quantified using the Envision (Perkin Elmer) plate reader. Readings were normalized to DMSO only treated cells, and normalized activities were utilized for EC50 calculations using the dose-response log (inhibitor) vs. response -variable slope (four parameters) nonlinear regression feature available in GraphPad Prism 5.0 (or Dotmatics).

[1] = test system: primary human fibroblasts derived from IPF patients (LL29 cells); assay: Inhibition of the fibrotic process: αSMA staining in TGF-β1 treated LL29 fibroblasts; details: Fibroblast; for EC50: 96 h, LL29 cells, TGF-β1 20 ng/mL, 4 days, % αSMA positive cells; for inhibition at 10 µM: read-out: percent inhibition at 10 μM
Procedure: Representative compounds were screened using primary human fibroblasts (derived from IPF patients) treated with TGF-β1 to determine their ability to inhibit the fibrotic process.
LL29 cells are plated at 1,500 cells/well in 80 μL/well F12 medium supplemented with 1% Fetal Bovine Serum. […] Wells treated with TGF-β1 and containing DMSO were used as controls. […] Following incubation for 4 days, SYTOX green nucleic acid stain (Life Technologies [Thermo Fisher Scientific]) was added to the wells at a final concentration of 1 μM and incubated at room temperature for 30 min.

CC(C)CC(=O)Nc1cncc(-c2cc3c(-c4cc5c(-c6cccc(F)c6)cncc5[nH]4)n[nH]c3cn2)c1 [Compound 2, N-(5-(3-(4-(3-Fluorophenyl)-1 H-pyrrolo[2,3-c]pyridin-2-yl)-1 H-pyrazolo[3,4-c]pyridin-5-yl)pyridin-3-yl)-3-methylbutanamide]
inhibition at 10 µM (IL-6): 37.2%
EC50 (IL-6): > 10 µM
EC50 (SW480 colon cancer cells): > 10000 nM
inhibition at 10 µM (SW480 colon cancer cells): 25.4%
inhibition at 10 µM (Wnt activity): 5.6%
EC50 (Wnt activity): > 10000 nM
EC50 [1]: 2230 nM

CN(C)c1cncc(-c2cc3c(-c4cc5c(-c6cccc(F)c6)cncc5[nH]4)n[nH]c3cn2)c1 [Compound 7, 5-(3-(4-(3-Fluorophenyl)-1H-pyrrolo[2,3-c]pyridin-2-yl)-1H-pyrazolo[3,4-c]pyridin-5-yl)-N,N-dimethylpyridin-3-amine]
EC50 (IL-6): 9.84 µM
EC50 (SW480 colon cancer cells): 1260 nM
EC50 (Wnt activity): 2330 nM
EC50 [1]: 1040 nM

CCC(=O)Nc1cncc(-c2cc3c(-c4cc5c(-c6ccc(F)cc6)cncc5[nH]4)n[nH]c3cn2)c1 [Compound 29, N-(5-(3-(4-(4-Fluorophenyl)-1H-pyrrolo[2,3-c]pyridin-2-yl)-1H-pyrazolo[3,4-c]pyridin-5-yl)pyridin-3-yl)propionamide]
inhibition at 10 µM (IL-6): 43%
EC50 (IL-6): > 10 µM
EC50 (SW480 colon cancer cells): > 10000 nM
inhibition at 10 µM (SW480 colon cancer cells): 29.6%
inhibition at 10 µM (Wnt activity): 37.8%
EC50 (Wnt activity): > 10000 nM
EC50 [1]: > 10000 nM
inhibition at 10 µM [1]: 49.1%

Cc1ccncc1-c1cc2c(-c3cc4c(-c5ccc(F)cc5)cncc4[nH]3)n[nH]c2cn1 [Compound 33, 3-(4-(4-Fluorophenyl)-1H-pyrrolo[2,3-c]pyridin-2-yl)-5-(4-methylpyridin-3-yl)-1H-pyrazolo[3,4-c]pyridine]
EC50 (IL-6): 4.58 µM
EC50 (SW480 colon cancer cells): 1090 nM
EC50 (Wnt activity): 1840 nM
EC50 [1]: 333 nM

CC(C)(C)C(=O)Nc1cncc(-c2cc3c(-c4cc5c(-c6ccc(F)cc6)cncc5[nH]4)n[nH]c3cn2)c1 [Compound 36, N-(5-(3-(4-(4-Fluorophenyl)-1H-pyrrolo[2,3-c]pyridin-2-yl)-1H-pyrazolo[3,4-c]pyridin-5-yl)pyridin-3-yl)pivalamide]
inhibition at 10 µM (IL-6): 29.6%
EC50 (IL-6): > 10 µM
EC50 (SW480 colon cancer cells): 1100 nM
EC50 (Wnt activity): 1600 nM
EC50 [1]: 299 nM

CC(C)Nc1cncc(-c2cc3c(-c4cc5c(-c6ccc(F)cc6)cncc5[nH]4)n[nH]c3cn2)c1 [Compound 40, 5-(3-(4-(4-Fluorophenyl)-1H-pyrrolo[2,3-c]pyridin-2-yl)-1H-pyrazolo[3,4-c]pyridin-5-yl)-N-isopropylpyridin-3-amine]
EC50 (IL-6): 2.47 µM
EC50 (SW480 colon cancer cells): 1290 nM
EC50 (Wnt activity): 937 nM
EC50 [1]: 141 nM

CC(C)(C)CC(=O)Nc1cncc(-c2cc3c(-c4cc5c(-c6ccc(F)cc6)cncc5[nH]4)n[nH]c3cn2)c1 [Compound 44, N-(5-(3-(4-(4-Fluorophenyl)-1H-pyrrolo[2,3-c]pyridin-2-yl)-1H-pyrazolo[3,4-c]pyridin-5-yl)pyridin-3-yl)-3,3-dimethylbutanamide]
inhibition at 10 µM (IL-6): 16.2%
EC50 (IL-6): > 10 µM
EC50 (SW480 colon cancer cells): 3510 nM
EC50 (Wnt activity): 679 nM
EC50 [1]: 434 nM

O=C(Nc1cncc(-c2cc3c(-c4cc5c(-c6ccc(F)cc6)cncc5[nH]4)n[nH]c3cn2)c1)C1CCC1 [Compound 49, N-(5-(3-(4-(4-Fluorophenyl)-1H-pyrrolo[2,3-c]pyridin-2-yl)-1H-pyrazolo[3,4-c]pyridin-5-yl)pyridin-3-yl)cyclobutanecarboxamide]
inhibition at 10 µM (IL-6): 42.5%
EC50 (IL-6): > 10 µM
EC50 (SW480 colon cancer cells): > 10000 nM
inhibition at 10 µM (SW480 colon cancer cells): 36%
EC50 (Wnt activity): 3650 nM
EC50 [1]: 3040 nM

CC(C)(C)CC(=O)Nc1cncc(-c2cc3c(-c4cc5c(-c6ccccc6F)cncc5[nH]4)n[nH]c3cn2)c1 [Compound 72, N-(5-(3-(4-(2-Fluorophenyl)-1H-pyrrolo[2,3-c]pyridin-2-yl)-1H-pyrazolo[3,4-c]pyridin-5-yl)pyridin-3-yl)-3,3-dimethylbutanamide]
EC50 (IL-6): 0.805 µM
EC50 (SW480 colon cancer cells): 693 nM
EC50 (Wnt activity): 975 nM
EC50 [1]: 468 nM

O=C(Nc1cncc(-c2cc3c(-c4cc5c(-c6ccccc6F)cncc5[nH]4)n[nH]c3cn2)c1)C1CCCCC1 [Compound 79, N-(5-(3-(4-(2-Fluorophenyl)-1H-pyrrolo[2,3-c]pyridin-2-yl)-1H-pyrazolo[3,4-c]pyridin-5-yl)pyridin-3-yl)cyclohexanecarboxamide]
EC50 (IL-6): 9.56 µM
EC50 (SW480 colon cancer cells): 1730 nM
EC50 (Wnt activity): 3260 nM
EC50 [1]: 1080 nM

Fc1ccccc1-c1cncc2[nH]c(-c3n[nH]c4cnc(-c5ccccn5)cc34)cc12 [Compound 84, 3-(4-(2-Fluorophenyl)-1H-pyrrolo[2,3-c]pyridin-2-yl)-5-(pyridin-2-yl)-1H-pyrazolo[3,4-c]pyridine]
EC50 (IL-6): 3.03 µM
EC50 (SW480 colon cancer cells): 1290 nM
EC50 (Wnt activity): 1060 nM
EC50 [1]: 1390 nM

O=C(Cc1ccccc1)Nc1cncc(-c2cc3c(-c4cc5c(-c6cccnc6)cncc5[nH]4)n[nH]c3cn2)c1 [Compound 94, 2-Phenyl-N-(5-(3-(4-(pyridin-3-yl)-1H-pyrrolo[2,3-c]pyridin-2-yl)-1H-pyrazolo[3,4-c]pyridin-5-yl)pyridin-3-yl)acetamide]
EC50 (IL-6): 3.05 µM
EC50 (SW480 colon cancer cells): > 10000 nM
inhibition at 10 µM (SW480 colon cancer cells): 28.9%
inhibition at 10 µM (Wnt activity): 12.2%
EC50 (Wnt activity): > 10000 nM
EC50 [1]: > 10000 nM
inhibition at 10 µM [1]: 0%

CC(C)Nc1cncc(-c2cc3c(-c4cc5c(-c6cccnc6)cncc5[nH]4)n[nH]c3cn2)c1 [Compound 96, N-Isopropyl-5-(3-(4-(pyridin-3-yl)-1H-pyrrolo[2,3-c]pyridin-2-yl)-1H-pyrazolo[3,4-c]pyridin-5-yl)pyridin-3-amine]
EC50 (IL-6): 3.15 µM
EC50 (SW480 colon cancer cells): > 10000 nM
inhibition at 10 µM (SW480 colon cancer cells): 25.2%
EC50 (Wnt activity): 940 nM
EC50 [1]: 624 nM

CC(C)CC(=O)Nc1cncc(-c2cc3c(-c4cc5c(-c6ccncc6)cncc5[nH]4)n[nH]c3cn2)c1 [Compound 114, 3-Methyl-N-(5-(3-(4-(pyridin-4-yl)-1H-pyrrolo[2,3-c]pyridin-2-yl)-1H-pyrazolo[3,4-c]pyridin-5-yl)pyridin-3-yl)butanamide]
inhibition at 10 µM (IL-6): 11.6%
EC50 (IL-6): > 10 µM
EC50 (SW480 colon cancer cells): > 10000 nM
inhibition at 10 µM (SW480 colon cancer cells): 14.2%
inhibition at 10 µM (Wnt activity): 15.1%
EC50 (Wnt activity): > 10000 nM
EC50 [1]: > 10000 nM
inhibition at 10 µM [1]: 23%

O=C(Nc1cncc(-c2cc3c(-c4cc5c(-c6ccncc6)cncc5[nH]4)n[nH]c3cn2)c1)c1ccccc1 [Compound 123, N-(5-(3-(4-(Pyridin-4-yl)-1H-pyrrolo[2,3-c]pyridin-2-yl)-1H-pyrazolo[3,4-c]pyridin-5-yl)pyridin-3-yl)benzamide]
inhibition at 10 µM (IL-6): 19%
EC50 (IL-6): > 10 µM
EC50 (SW480 colon cancer cells): > 10000 nM
inhibition at 10 µM (SW480 colon cancer cells): 20.9%
inhibition at 10 µM (Wnt activity): 8%
EC50 (Wnt activity): > 10000 nM
EC50 [1]: > 10000 nM
inhibition at 10 µM [1]: 53.6%

CCCCC(=O)Nc1cncc(-c2cc3c(-c4cc5c(-c6ccncc6)cncc5[nH]4)n[nH]c3cn2)c1 [Compound 131, N-(5-(3-(4-(Pyridin-4-yl)-1H-pyrrolo[2,3-c]pyridin-2-yl)-1H-pyrazolo[3,4-c]pyridin-5-yl)pyridin-3-yl)pentanamide]
inhibition at 10 µM (IL-6): 20.6%
EC50 (IL-6): > 10 µM
EC50 (SW480 colon cancer cells): > 10000 nM
inhibition at 10 µM (SW480 colon cancer cells): 17.8%
inhibition at 10 µM (Wnt activity): 13.1%
EC50 (Wnt activity): > 10000 nM
EC50 [1]: > 10000 nM
inhibition at 10 µM [1]: 8.3%
